Structures can show the parent of a compound that is named as a salt. Where two headings read alike, the source gives them in different places.
What was measured:
[1] = target: T1, α1A (rat submaxillary gland) (Rattus norvegicus, UniProt P43140); assay: Radioligand binding, [3H]-prazosin, α1A
T1 construct: α1A (rat submaxillary gland); from tissue; host or cells: rat submaxillary gland
T1 sequence (P43140 1-466): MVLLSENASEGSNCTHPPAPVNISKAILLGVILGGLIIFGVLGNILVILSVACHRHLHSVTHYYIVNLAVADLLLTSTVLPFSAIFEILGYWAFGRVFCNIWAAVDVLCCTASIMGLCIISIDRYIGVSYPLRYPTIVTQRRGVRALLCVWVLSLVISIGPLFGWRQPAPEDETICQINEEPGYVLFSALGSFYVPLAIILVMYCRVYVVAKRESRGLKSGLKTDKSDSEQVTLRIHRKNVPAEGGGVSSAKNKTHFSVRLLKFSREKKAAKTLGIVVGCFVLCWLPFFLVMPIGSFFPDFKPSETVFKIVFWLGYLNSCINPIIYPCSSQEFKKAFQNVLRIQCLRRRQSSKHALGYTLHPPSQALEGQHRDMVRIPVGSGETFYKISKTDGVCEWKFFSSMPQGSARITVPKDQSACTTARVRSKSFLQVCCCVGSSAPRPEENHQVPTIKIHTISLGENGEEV
Protocol: (§1) For purposes of discussing a, adrenoceptor subtypes, the IUPHAR convention of using lower case letters to define molecular clones and upper case letters to indicate pharmacologically defined adrenoceptors has been followed. Compounds of formula I were evaluated in radioligand binding assays specific for α1A (rat submaxillary gland), α1b (hamster receptor expressed in mouse fibroblasts) and α1d (rat receptor expressed in mouse fibroblasts) using [^3H]-prazosin as the radioligand as described in Knepper, et al. J. Pharm.

[2] = target: T2, α1b (hamster receptor expressed in mouse fibroblasts) (Mesocricetus auratus, UniProt P18841); assay: Radioligand binding, [3H]-prazosin, α1b
T2 construct: expressed in transfected cells; host or cells: mouse fibroblasts
T2 sequence (P18841 1-515): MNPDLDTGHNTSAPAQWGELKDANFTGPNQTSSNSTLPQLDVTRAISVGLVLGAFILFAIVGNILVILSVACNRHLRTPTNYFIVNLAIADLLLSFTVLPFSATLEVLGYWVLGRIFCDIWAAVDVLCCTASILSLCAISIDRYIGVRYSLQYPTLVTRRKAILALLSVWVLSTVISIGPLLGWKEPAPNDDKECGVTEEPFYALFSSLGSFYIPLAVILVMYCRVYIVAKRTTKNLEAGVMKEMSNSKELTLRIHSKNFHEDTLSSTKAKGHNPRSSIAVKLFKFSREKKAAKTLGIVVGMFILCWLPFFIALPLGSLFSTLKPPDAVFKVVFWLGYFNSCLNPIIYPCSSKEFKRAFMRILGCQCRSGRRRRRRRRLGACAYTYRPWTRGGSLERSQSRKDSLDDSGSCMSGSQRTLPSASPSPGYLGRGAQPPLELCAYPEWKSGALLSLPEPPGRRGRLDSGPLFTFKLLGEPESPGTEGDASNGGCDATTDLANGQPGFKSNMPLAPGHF
Protocol: as §1

[3] = target: T3, α1d (rat receptor expressed in mouse fibroblasts) (Rattus norvegicus, UniProt P23944); assay: Radioligand binding, [3H]-prazosin, α1d
T3 construct: expressed in transfected cells; host or cells: mouse fibroblasts
T3 sequence (P23944 1-561): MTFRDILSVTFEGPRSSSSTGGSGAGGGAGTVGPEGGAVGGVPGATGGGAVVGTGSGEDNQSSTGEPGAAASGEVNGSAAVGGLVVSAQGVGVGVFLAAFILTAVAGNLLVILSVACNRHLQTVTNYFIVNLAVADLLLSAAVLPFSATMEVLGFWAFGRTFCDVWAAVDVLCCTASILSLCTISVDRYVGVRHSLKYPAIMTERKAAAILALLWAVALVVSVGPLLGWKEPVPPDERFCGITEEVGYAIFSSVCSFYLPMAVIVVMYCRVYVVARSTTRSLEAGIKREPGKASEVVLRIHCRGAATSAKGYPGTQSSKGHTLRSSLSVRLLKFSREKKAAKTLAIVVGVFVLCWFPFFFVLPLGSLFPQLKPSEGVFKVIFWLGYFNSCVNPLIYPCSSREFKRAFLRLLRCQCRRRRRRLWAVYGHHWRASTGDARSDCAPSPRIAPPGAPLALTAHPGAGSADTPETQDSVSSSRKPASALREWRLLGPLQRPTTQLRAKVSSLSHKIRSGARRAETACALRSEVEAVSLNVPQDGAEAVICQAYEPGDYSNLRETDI
Protocol: as §1

[4] = rat receptor expressed in mouse fibroblasts, [3H]-prazosin, read-out: Radioligand Binding Ki α1d (Rat)
[5] = hamster receptor expressed in mouse fibroblasts, [3H]-prazosin, read-out: Radioligand Binding Ki α1b (Hamster)

Compound	Ki [1]	Ki [2]	Ki [3]	melting point	Ki [3, 4]	Ki [2, 5]
C=C(c1cccc(NS(=O)(=O)CC(F)(F)F)c1)c1c[nH]cn1.O=C(O)/C=C\C(=O)O [Example 91, 2,2,2-trifluoro-N-{3-[1-(1H-imidazol-4-yl)vinyl]phenyl}ethanesulfonamide Maleate]	1.52 µM	10 µM	10 µM	149 to 153 °C	–	–
O=S(=O)(CC(F)(F)F)Nc1cccc2c1CCCC2c1c[nH]cn1 (single isomer, unassigned; (+)) [Example 36, (+)-N-[5,6,7,8-tetrahydro-5-(1H-imidazol-4-yl)-1-napbthalenyl]-2,2,2-trifluoroethanesulfonamide]	–	–	–	> 260 °C	10 µM	–
CS(=O)(=O)Nc1ccc(O)c2c1CCCC2c1c[nH]cn1.O=C(O)/C=C\C(=O)O (stereo not shown) [Example 24, N-[5,6,7,8-tetrahydro-4-hydroxy-5-(1H-imidazol-4-yl)-1-naphthalenyl]methanesulfonamide, Maleate]	–	–	–	127 to 131 °C	10 µM	10 µM
O=S(=O)(CC(F)(F)F)Nc1cccc2c1OCCC2c1c[nH]cn1 (single isomer, unassigned) [Example 88, 2,2,2-trifluoro-N-[4-(1H-imidazol-4-yl)-3,4-dihydro-2H-chromen-8-yl]ethanesulfonamide]	0.573 µM	–	–	–	10 µM	10 µM
CCS(=O)(=O)Nc1cccc2c1SCCC2c1c[nH]cn1.O=C(O)/C=C\C(=O)O (stereo not shown) [Example 89, N-[4-(1H-imidazol-4-yl)-3,4-dihydro-2H-thiochromen-8-yl]ethanesulfonamide Maleate]	1.01 µM	–	–	248 to 251 °C	10 µM	10 µM
CCS(=O)(=O)Nc1cccc(C(=C(C)C)c2c[nH]cn2)c1 [Example 94, N-{3-[1-(1H-imidazol-4-yl)-2-methyl-1-propenyl]phenyl}ethanesulfonamide]	1.94 µM	–	–	152 to 155 °C	0.173 µM	1.18 µM
CCN(C(=O)Nc1cccc2c1CCCC2c1c[nH]cn1)C(C)C (stereo not shown) [Example 118, N-ethyl-N′-[5-(1H-imidazol-4-yl)-5,6,7,8-tetrahydro-1-naphthalenyl]-N-isopropylurea]	0.329 µM	–	–	–	0.92 µM	10 µM
Cc1ccc(OC(=O)Nc2cccc3c2CCCC3c2c[nH]cn2)cc1 (stereo not shown) [Example 124, 4-methylphenyl 5-(1H-imidazol-4-yl)-5,6,7,8-tetrahydro-1-naphthalenylcarbamate]	0.451 µM	1.47 µM	0.787 µM	–	–	–
Cc1ccc(NS(C)(=O)=O)c2c1C(c1c[nH]cn1)CCC2.O=C(O)/C=C\C(=O)O (stereo not shown) [Example 23, N-[5,6,7,8-tetrahydro-5-(1H-imidazol-4-yl)-4-methyl-1-naphthalenyl]methanesulfonamide, Maleate]	–	–	–	192 to 195 °C	–	10 µM
CS(=O)(=O)Nc1ccc(Cl)c2c1CCCC2c1c[nH]cn1.O=C(O)/C=C\C(=O)O (stereo not shown) [Example 43, N-[4-chloro-5-(1H-imidazol-4-yl)-5,6,7,8-tetrahydro-1-naphthalenyl]methanesulfonamide, Maleate]	–	–	–	175 to 178 °C	–	10 µM
COC(=O)Nc1cccc2c1CCCC2c1c[nH]cn1 (stereo not shown) [Example 119, methyl 5-(1H-imidazol-4-yl)-5,6,7,8-tetrahydro-1-naphthalenylcarbamate]	–	10 µM	3.04 µM	–	–	–
CCS(=O)(=O)Nc1cc(F)cc2c1CCCC2c1c[nH]cn1 (stereo not shown) [Example 131, N-[3-fluoro-5-(1H-imidazol-4-yl)-5,6,7,8-tetrahydro-1-naphthalenyl]ethanesulfonamide]	0.09 µM	–	–	–	2.16 µM	10 µM
CCS(=O)(=O)Nc1ccc(Cl)c2c1CCCC2c1c[nH]cn1.O=C(O)/C=C\C(=O)O (stereo not shown) [Example 42, N-[4-chloro-5-(1H-imidazol-4-yl)-5,6,7,8-tetrahydro-1-naphthalenyl]ethanesulfonamide, Maleate]	–	–	–	151 to 155 °C	–	10 µM
CCS(=O)(=O)Nc1cccc2c1COC2c1c[nH]cn1.O=C(O)/C=C\C(=O)O (stereo not shown) [Example 87, N-[1-(1H-imidazol-4-yl)-1,3-dihydro-2-benzofuran-4-yl]ethanesulfonamide Maleate]	0.936 µM	10 µM	10 µM	95 to 98 °C	–	–
CCS(=O)(=O)Nc1cc(C2CCCCC2)cc2c1CCCC2c1c[nH]cn1 (stereo not shown) [Example 101, N-[3-cyclohexyl-5-(1H-imidazol-4-yl)-5,6,7,8-tetrahydro-1-naphthalenyl]ethanesulfonamide]	0.269 µM	0.886 µM	0.449 µM	207 to 209 °C	–	–
CCS(=O)(=O)Nc1cccc2c1OCCC2c1c[nH]cn1 (stereo not shown) [Example 79, N-[4-(1H-imidazol-4-yl)-3,4-dihydro-2H-chromen-8-yl]ethanesulfonamide]	0.638 µM	–	–	–	10 µM	10 µM
CCS(=O)(=O)Nc1cccc2c1CCCCC2c1c[nH]cn1.O=C(O)/C=C\C(=O)O (stereo not shown) [Example 40, N-[5-(1H-imidazol-4-yl)-6,7,8,9-tetrahydro-5H-benzo[a]cyclohepten-1-yl]ethanesulfonamide, Maleate]	–	–	–	155 to 156 °C	10 µM	10 µM
CS(=O)(=O)Nc1cccc2c1CCCCC2c1c[nH]cn1.O=C(O)/C=C\C(=O)O (stereo not shown) [Example 38, N-[5-(1H-imidazol-4-yl)-6,7,8,9-tetrahydro-5H-benzo[a]cyclohepten-1-yl]methanesulfonamide, Maleate]	–	–	–	162 to 164 °C	–	10 µM
Cc1noc(C)c1S(=O)(=O)Nc1cccc2c1CCCC2c1c[nH]cn1 (stereo not shown) [Example 61, N-[5-(1H-imidazol-4-yl)-5,6,7,8-tetrahydro-1-naphthalenyl]-3,5-dimethyl-4-isoxazolesulfonamide]	–	–	–	–	10 µM	10 µM
CC(C)(OC(=O)Nc1cccc2c1CCCC2c1c[nH]cn1)C(Cl)(Cl)Cl (stereo not shown) [Example 122, 2,2,2-trichloro-1-dimethylethyl 5-(1H-imidazol-4-yl)-5,6,7,8-tetrahydro-1-naphthalenylcarbamate]	1.03 µM	10 µM	1.27 µM	–	–	–
CN(C)S(=O)(=O)Nc1cccc2c1CCCC2c1c[nH]cn1 (stereo not shown) [Example 111, N′-[5-(1H-imidazol-4-yl)-5,6,7,8-tetrahydro-1-naphthalenvyl]-N,N-dimethylsulfamide]	0.579 µM	–	–	208 to 210 °C	1.59 µM	10 µM
CCOC(=O)Nc1cccc2c1CCCC2c1c[nH]cn1 (stereo not shown) [Example 120, ethyl 5-(1H-imidazol-4-yl)-5,6,7,8-tetrahydro-1-naphthalenylcarbamate]	0.164 µM	–	–	–	2.91 µM	10 µM
CCS(=O)(=O)Nc1ccc(OC)c2c1CCCC2c1c[nH]cn1 (stereo not shown) [Example 25, N-[5,6,7,8-tetrahydro-(1H-imidazol-4-yl)-4-methoxy-1-naphthalenyl]ethanesulfonamide, Maleate]	–	–	–	–	10 µM	10 µM

From patent US20030073850A1, “4-Imidazole derivatives of benzyl and restricted benzyl sulfonamides, sulfamides, ureas, carbamates, and amides and their use” (priority 1998, published 2003)
